Consider ten compounds from patent US11498928B2, “Macrocyclic spiroethers as Mcl-1 inhibitors” (ASCENTAGE PHARMA (SUZHOU) CO., LTD., priority 2019, dated 2022).

Test [1] addresses T1, Mcl-1 protein (residues 171-323) (Homo sapiens, UniProt Q07820).
T1 construct: Tag-free Mcl-1 protein (residues 171-323) was used in the FP assay
As to the kind of experiment: Inhibition of Mcl-1 by fluorescence polarization (FP) competitive binding assay with FAM-Bid tracer. The settings on record: 2 nM FAM-Bid, 20 nM Mcl-1, 30 min. The procedure:
Inhibition of Mcl-1 by Fluorescence Polarization (FP) Assay.
The relative binding potency of representative Compounds of the Disclosure was determined by a fluorescence polarization (FP) assay (Long et al, BMC Biotechnology 13:45 (2013)). The method used a fluorescein labelled peptide (FAM-Bid) which binds to the Mcl-1 protein leading to an increased anisotropy measured in milli-polarization (mP) values using a plate reader. […] Tag-free Mcl-1 protein (residues 171-323) was used in the FP assay (Mady et al, Scientific Reports 8: 10210-10210 (2018); Yang et al, ACS Med. Chem. Lett. 3:308-312 (2012)).
A 10-points serial dilution of each compound was prepared in DMSO and 5 μL solution was transferred into flat bottomed, 96-well back plate (final DMSO concentration 5%). 120 μL of Buffer (PBS, 0.01% BGG (Sigma Cat. #SRE0011), 0.01% Triton X-100), containing the Fluorescein labelled peptide (Final concentration 2 nM) and Mcl-1 protein (final concentration 20 nM) was then added. Assay plates were incubated 30 mins at room temperature with gentle shaking before FP was measured on a Biotek Synergy 1MF reader (Ex. 485 nm, Em. 528 nm, Cut off 510 nm) and mP calculated. The binding of increasing doses of test compounds was expressed as a percentage reduction in mP compared to a window established between 5% DMSO only and 100% inhibition controls (no Mcl-1 protein). 10-points dose response curves were plotted with GraphPad software using Sigmoidal Dose-Response Model and the IC50 values were determined by nonlinear regression fitting of the competition curves. Cell Viability Assay (NCI-H929 cells)

A further test has as its system OPM-2 cells. Kind of test: Cell viability assay (OPM-2 cells), CCK-8. The test is classed as cell-based. The settings on record: 5% FBS. As for the experimental part: OPM-2 cells were obtained from Deutsche Sammlung von Mikroorganismen and Zellkulturen GmbH (DSMZ). Cells were maintained in the recommended culture medium with 10% FBS at 37° C. and an atmosphere of 5% CO2.
The effect of representative Compounds of the Disclosure on cell viability was determined using Cell Counting Kit-8 (CCK-8) assay (Shanghai Life iLab Bio Technology) according to the manufacturer's instructions. Each tested compound was serially diluted in culture medium, 100 μL of the compound dilution was added into 96-well plates. 100 μL of an OPM-2 cell suspension (20000 cells/well) in culture medium were seeded into the corresponding well of the plate and the cells were incubated at 37° C. in an atmosphere of 5% CO2 for 24 hours. In the next day, 20 μL of CCK-8 solution was added to each well of the plate and incubated for 4 hours.
The plates were read at 450 nm on the microplate spectrophotometer (SpectraMax plus 384, Molecular devices). The readings were normalized to the vehicle cells, and the IC50 was calculated by nonlinear regression analysis using GraphPad Prism 6 software.

Another test has as its system NCI-H929 cells. As to the kind of experiment: Cell viability assay (NCI-H929 cells), CCK-8. The format is cell-based. The settings on record: 5% FBS. As for the experimental part: NCI-H929 cells were obtained from American Type Culture Collection (ATCC). Cells were maintained in the recommended culture medium (RPMI 1640) with 10% FBS and 0.05 mM BME at 37° C. and an atmosphere of 5% CO2.
The effect of Compounds on cell viability was determined using Cell Counting Kit-8 (CCK-8) assay according to the manufacturer's instructions. 95 μL of NCI-H929 cell suspension (20000 cells/well) in culture medium were seeded into 96-well plates and cultured 4 hrs. Each tested compound was serially diluted in DMSO, then 5 μL of the compound or DMSO was diluted in 95 μL medium once more. At last, 5 μL of the compound dilution was added to the corresponding well of the cell plate. After the addition of the tested compound, the cells were incubated at 37° C. in an atmosphere of 5% CO2 for 24 hrs. At the end, 10 μL of CCK-8 solution was added to each well of the plate and incubated for 1-4 hours. The plates were read at 450 nm on the microplate reader (BioTek Synergy 1MF). The readings were normalized to the vehicle cells, and the IC50 was calculated by nonlinear regression analysis using GraphPad Prism 6 software. Cell Viability Assay (OPM-2 cells)

T1 sequence (Q07820 171-323): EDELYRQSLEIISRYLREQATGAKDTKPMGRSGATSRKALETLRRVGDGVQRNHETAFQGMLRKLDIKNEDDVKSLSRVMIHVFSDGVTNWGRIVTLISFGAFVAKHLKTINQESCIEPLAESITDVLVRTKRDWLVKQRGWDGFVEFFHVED

Turning to `C[C@@H]1[C@@H](C)S(=O)(=O)NC(=O)c2ccc3c(c2)N(C[C@@H]2CC[C@H]2[C@@H](OCCN2CCN(S(C)(=O)=O)CC2)C2=C[C@H]1C2)C[C@@]1(CCCc2c1ccc(Cl)c2F)CO3` [compound 76, (1S,11′R,12′5,13′R,16′R,16a′R,18a′R,E)-6-chloro-5-fluoro-11′,12′-dimethyl-16′-(2-(4-(methylsulfonyl)piperazin-1-yl)ethoxy)-3,4,12′,13′,16′,16a′,17′,18′,18a′,19′-decahydro-1′H,2H,3′H,11′H-spiro[naphthalene-1,2′-[5,7]etheno[13,15]methanocyclobuta[i][1,4]oxazepino[3,4-f][1]thia[2,7]diazacyclohexadecin]-8′(9′H)-one 10′,10′-dioxide], the IC50 was 0.021 µM in test [1]; 0.206 µM in the test with OPM-2 cells (Homo sapiens, OPM-2, 24 h); 0.037 µM in the test with NCI-H929 cells (Homo sapiens, NCI-H929, 24 h).
Taken in the same sequence, the figures for `C[C@@H]1[C@@H](C)S(=O)(=O)NC(=O)c2ccc3c(c2)N(C[C@@H]2CC[C@H]2[C@@H](OCC(=O)N2CCN(C)CC2)C2=C[C@H]1C2)C[C@@]1(CCCc2c1ccc(Cl)c2F)CO3` [compound 70, (1S,11′R,12′S,13′R,16′R,16a′R,18a′R,E)-6-chloro-5-fluoro-11′,12′-dimethyl-16′-(2-(4-methylpiperazin-1-yl)-2-oxoethoxy)-3,4,12′,13′,16′,16a′,17′,18′,18a′,19′-decahydro-1′H,2H,3′H, 11′H-spiro[naphthalene-1,2′-[5,7]etheno[13,15]methanocyclobuta[i][1,4]oxazepino[3,4-f][1]thia[2,7]diazacyclohexadecin]-8′(9′H)-one 10′,10′-dioxide] were 0.014 µM, 0.035 µM and 0.081 µM.
Taken in the same sequence, the figures for `CC(=O)N(C)CCO[C@H]1C2=C[C@@H](C2)[C@H](C)[C@@H](C)S(=O)(=O)NC(=O)c2ccc3c(c2)N(C[C@@H]2CC[C@H]21)C[C@@]1(CCCc2c1ccc(Cl)c2F)CO3` [compound 80, N-(2-(((1S,11′R,12′S,13′R,16′R,16a′R,18a′R,E)-6-chloro-5-fluoro-11′,12′-dimethyl-10′,10′-dioxido-8′-oxo-3,4,8′,9′,12′,13′,16′,16a′,17′,18′,18a′,19′-dodecahydro-1′H,2H,3′H, 11′H-spiro[naphthalene-1,2′-[5,7]etheno[13,15]methanocyclobuta[i][1,4]oxazepino[3,4-f][1]thia[2,7]diazacyclohexadecin]-16′-yl)oxy)ethyl)-N-methylacetamide] were 0.013 µM, 0.158 µM and 0.062 µM.
The matching figures for `C[C@@H]1[C@@H](C)S(=O)(=O)NC(=O)c2ccc3c(c2)N(C[C@@H]2CC[C@H]2[C@@H](OCC(=O)N2CCCC2)C2=C[C@H]1C2)C[C@@]1(CCCc2c1ccc(Cl)c2F)CO3` [compound 68, (1S,11′R,12′S,13′R,16′R,16a′R,18a′R,E)-6-chloro-5-fluoro-11′,12′-dimethyl-16′-(2-oxo-2-(pyrrolidin-1-yl)ethoxy)-3,4,12′,13′,16′,16a′,17′,18′,18a′,19′-decahydro-1′H,2H,3′H, 11′H-spiro[naphthalene-1,2′-[5,7]etheno[13,15]methanocyclobuta[i][1,4]oxazepino[3,4-f][1]thia[2,7]diazacyclohexadecin]-8′(9′H)-one 10′,10′-dioxide]: 0.015 µM, 0.047 µM and 0.043 µM.
As for `CC[C@@H]1CS(=O)(=O)NC(=O)c2ccc3c(c2)N(C[C@@H]2CC[C@H]2[C@@H](OC)C2=CC1C2)C[C@@]1(CCCc2cc(Cl)ccc21)CO3` (single isomer, unassigned) [Cpd. No. 9 (Isomer 1)], the results for the IC50 (in test [1]; in the test with OPM-2 cells (24 h); in the test on NCI-H929 cells (24 h)) were 0.0044 µM, 1.17 µM and 0.68 µM, respectively.
Turning to `CO[C@@]1(CN(C)C(C)=O)C2=C[C@@H](C2)[C@H](C)[C@@H](C)S(=O)(=O)NC(=O)c2ccc3c(c2)N(C[C@@H]2CC[C@H]21)C[C@@]1(CCCc2c1ccc(Cl)c2F)CO3` [compound 53, N-(((1S,11′R,12′S,13′R,16′R,16a′R,18a′R,E)-6-chloro-5-fluoro-16′-methoxy-11′,12′-dimethyl-10′,10′-dioxido-8′-oxo-3,4,8′,9′,12′,13′,16′,16a′,17′,18′,18a′,19′-dodecahydro-1′H,2H,3′H,11′H-spiro[naphthalene-1,2′-[5,7]etheno[13,15]methanocyclobuta[i][1,4]oxazepino[3,4-f][1]thia[2,7]diazacyclohexadecin]-16′-yl)methyl)-N-methylacetamide], the IC50 in test [1] was found to be 0.0057 µM; in the test on OPM-2 cells (Homo sapiens, OPM-2, 24 h), 0.057 µM; in the test with NCI-H929 cells (Homo sapiens, NCI-H929, 24 h), 0.049 µM.
On to `CO[C@H]1C2=C[C@@H](C2)[C@H](C)[C@@H](C)S(=O)(=O)NC(=O)c2ccc3c(c2)N(C[C@@H]2CC[C@H]21)C[C@@]1(CCCc2c1ccc(Cl)c2F)CS3` (single isomer, unassigned) [22 (isomer 1)], for which the IC50 in test [1] was found to be 0.013 µM; with OPM-2 cells (Homo sapiens, OPM-2, 24 h), 0.567 µM; in the test with NCI-H929 cells (Homo sapiens, NCI-H929, 24 h), 0.7 µM.
Taken in the same sequence, the figures for `CO[C@@]1(CN2CCN3CCOC[C@H]3C2)C2=C[C@@H](C2)[C@H](C)[C@@H](C)S(=O)(=O)NC(=O)c2ccc3c(c2)N(C[C@@H]2CC[C@H]21)C[C@@]1(CCCc2c1ccc(Cl)c2F)CO3` [compound 34, (1S,11′R,12′S,13′R,16′R,16a′R,18a′R,E)-6-chloro-5-fluoro-16′-(((R)-hexahydropyrazino[2,1-c][1,4]oxazin-8(1H)-yl)methyl)-16′-methoxy-11′,12′-dimethyl-3,4,12′,13′,16′,16a′,17′,18′,18a′,19′-decahydro-1′H,2H,3′H,11′H-spiro[naphthalene-1,2′-[5,7]etheno[13,15]methanocyclobuta[i][1,4]oxazepino[3,4-f][1]thia[2,7]diazacyclohexadecin]-8′(9′H)-one 10′,10′-dioxide] were 0.0097 µM, 0.035 µM and 0.016 µM.
For the compound `CO[C@H]1C2=CC(CCS(=O)(=O)NC(=O)c3ccc4c(c3)N(C[C@@H]3CC[C@H]31)C[C@@]1(CCCc3cc(Cl)ccc31)CO4)C2` (single isomer, unassigned) [Cpd. No. 1 (Isomer 2)], the IC50 in test [1] is 0.0057 µM; with OPM-2 cells (24 h), 2.43 µM; with NCI-H929 cells (24 h) it was 1.5 µM.
As to `CC(C)OC(=O)CO[C@H]1C2=C[C@@H](C2)[C@H](C)[C@@H](C)S(=O)(=O)NC(=O)c2ccc3c(c2)N(C[C@@H]2CC[C@H]21)C[C@@]1(CCCc2c1ccc(Cl)c2F)CO3` [compound 73, isopropyl 2-(((1S,11′R,12′S,13′R,16′R,16a′R,18a′R,E)-6-chloro-5-fluoro-11′,12′-dimethyl-10′,10′-dioxido-8′-oxo-3,4,8′,9′,12′,13′,16′,16a′,17′,18′,18a′,19′-dodecahydro-1′H,2H,3′H,11′H-spiro[naphthalene-1,2′-[5,7]etheno[13,15]methanocyclobuta[i][1,4]oxazepino[3,4-f][1]thia[2,7]diazacyclohexadecin]-16′-yl)oxy)acetate], the IC50 in test [1] came out at 0.019 µM; in the test with OPM-2 cells (Homo sapiens, OPM-2, 24 h), 0.067 µM; with NCI-H929 cells (Homo sapiens, NCI-H929, 24 h), 0.15 µM.

As usually defined, the IC50 is the concentration that gives 50% inhibition.
